# Reference: patent publication US11230575B2, “Insoluble fusion protein comprising antimicrobial peptide and method for producing antimicrobial peptide using same” (Konkuk University Industrial Cooperation Corp., priority 2016, dated 2022)
# Experiments:
# Test in all cases: spot-on-lawn antimicrobial activity test
# Type in all cases: cell-based
# [1] = system: Escherichia coli ATCC 25922
# Description: (§1) In order to evaluate the antimicrobial activity of the purified antimicrobial peptides PG1 and PMAP36 according to the embodiment of the present invention, a spot-on-lawn test was carried out using E. coli ATCC 25922, Pseudomonas aeruginosa ATCC 27853, and Staphylococcus aureus ATCC 29213.
# [2] = system: Pseudomonas aeruginosa ATCC 27853
# Description: as §1
# [3] = system: Staphylococcus aureus ATCC 29213
# Description: as §1
Substance,Antimicrobial activity assay for the recombinant AMP produced [1],Antimicrobial activity assay for the recombinant AMP produced [2],Antimicrobial activity assay for the recombinant AMP produced [3]
"Protegrin 1 (RGGRLCYCRRRFCVCVGRG) [PG1, recombinantly produced antimicrobial peptide with anti-parallel beta-hairpin structure stabilized by two disulfide bonds, first discovered in pig leucocytes]",7 µg/mL,15 µg/mL,10 µg/mL
"pig myeloid antibacterial peptide36 (GRFRRLRKKTRKRLKKIGKVLKWIPPIVGSIPLGCG; listed as Sus scrofa) [PMAP36, recombinantly produced antimicrobial peptide having a helix structure]",10 µg/mL,11 µg/mL,9 µg/mL
